According to patent US20240122926A1, “APELIN RECEPTOR MODULATORS FOR TREATING MUSCLE CONDITIONS” (priority 2022, published 2024):

Key:
healthy adult subjects = assay: Phase 1 study Part A (SAD), safety and tolerability; format: in vivo, human; details: SAD cohorts
Description: Safety data is summarized using descriptive statistics (number of subjects, mean, median, standard deviation, minimum, and maximum) for continuous variables and using frequency and percentages for discrete variables.
Adverse events are coded using the Medical Dictionary for Regulatory Activities. The number of events, incidence, and percentage of TEAEs are calculated overall by system organ class, preferred term, and treatment group for each cohort and treatment group. The number and percentage of subjects with TEAEs are further summarized by severity and relationship to study drug. AEs related to study drug, AEs leading to withdrawal, SAEs, and deaths are also similarly summarized and/or listed in a similar manner.

[1] = tested on: Twenty-month-old male C57/Bl6 mice; assay: Hindlimb immobilization (casting, 21 days) disuse atrophy in aged mice, muscle wet weight; format: in vivo, mouse; details: 50 mg/kg BID P.O.; 21 days immobilization (placebo group 25%)
Excerpt: Limb immobilization causes a loss of gross skeletal muscle mass accompanied by a significant decrease in apelin transcript levels.
One week into the treatment, mice underwent modified hindlimb casting on one limb. Mice were anesthetized with isoflurane inhalation and the hindlimb wiped with povidone-iodine, then ethanol, and loosely wrapped in surgical gauze. A custom-made plastic immobilization device was placed on the limb, with the foot in full extension, so as to result in the maximal in vivo unloading of the plantarflexor group. The device was fixed to the hindlimb using Vetbond and the animal returned to its cage. After 3 weeks of treatment following casting, mice were euthanized 1 hour after the final ZT1 dose, and tissues isolated, weighed, then flash frozen in liquid nitrogen for subsequent western blot analysis.

human APLNR = target: T1, human APLNR (Homo sapiens, UniProt P35414); assay: cell-based; details: CHO, read-out: maximum effect (Emax)
T1 sequence (P35414 1-380): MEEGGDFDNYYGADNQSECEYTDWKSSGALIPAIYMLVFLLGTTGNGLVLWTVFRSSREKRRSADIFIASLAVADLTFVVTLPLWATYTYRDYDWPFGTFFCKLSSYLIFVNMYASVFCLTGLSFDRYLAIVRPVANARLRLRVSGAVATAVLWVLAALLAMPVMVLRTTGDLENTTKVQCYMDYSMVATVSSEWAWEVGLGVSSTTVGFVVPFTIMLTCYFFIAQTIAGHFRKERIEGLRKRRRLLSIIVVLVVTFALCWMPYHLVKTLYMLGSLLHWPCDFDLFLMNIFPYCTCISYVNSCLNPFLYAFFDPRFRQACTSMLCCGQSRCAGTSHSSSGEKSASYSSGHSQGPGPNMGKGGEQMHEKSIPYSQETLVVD
Description: APLNR activation was determined by β-arrestin recruitment as measured by the ProLink […] complementation technology (93-0001, DiscoveRx). In brief, CHO cells stably expressing APLNR were seeded and incubated overnight at 37° C. The compounds were tested in duplicate and diluted to obtain a 10-point curve with 3-fold serial dilutions (<1% DMSO). The compounds and cells were incubated for 3 hours at 37° C. After the incubation period the detection reagents were added and the plate chemiluminescent signal was measured after 30 min at RT.

[2] = tested on: 24-month-old C57BL/6 mice; assay: Activity monitoring wheel test in aged mice (frailty study); format: in vivo, mouse; details: 275 ug/mL in drinking water; both experiments; average
Description: The animals were housed with access to voluntary running wheels that wirelessly transmit running data to a computer for analysis. Voluntary running wheel activity levels were measured daily, and body weights were measured every 2 weeks.
The study concluded on Study Day 83. Activity wheel monitoring started on Study Day 1 and ended on Study Day 83 (Phase Day 64). The data was analyzed at the end of the study. […] For the frailty portion of the study, mice were assessed using an activity monitoring wheel which was monitored passively with a computer monitoring system.
BGE-105 was administered in drinking water consumed ad libitum. The compound is mildly acidic when dissolved, resulting in a pH 4.5 solution. The deionized water was adjusted to pH 8.5 by adding 1N NaOH. […]
The activity-monitoring wheel is a running disk that monitors rotations. […] Activity was monitored passively and wirelessly with a computer monitoring system. Running wheel activity levels were monitored daily. […] Mouse activity levels were measured as the number of wheel revolutions per day for each mouse and converted into a daily count of kilometers run using the diameter of the wheel. Within each experimental group, the daily median value for activity was calculated. […] The daily differences between the distances run in each group were calculated and tested for an increasing trend using Kendall's rank correlation tau.

[3] = tested on: fast and slow skeletal muscle; assay: snRNAseq of vastus lateralis muscle biopsies from Phase 1b study; format: in vivo, human
Excerpt: FIG. 40 illustrates nuclei isolation for 10× Genomics single cell transcriptome gene expression technology used to assess tissue samples. […] Tissue samples were collected from patients and processed in a laboratory. Tissues were dissociated and cleaned up. The debris were removed and the sample (e.g., nuclei) was washed, resuspended for multiple cycles according to routine tissue processing procedures. Cell nuclei were visualized and counted using standard transcriptome gene expression technologies 10× Genomics single cell library technology is used for assessing tissue samples.
Cell type clustered include fast skeletal muscle, slow skeletal muscle (type 1), myofibroblast, tenocytes, fibroblasts, muscle stem cells, pericytes, smooth muscle, endothelial cells, T/NK cells, and adipocytes. Two methods and two annotations were used.

[4] = 9-month oral toxicity study in dogs; format: in vivo, dog
Description: (§1) The updated exposure margins considering the highest maximum exposures in rats and dogs are calculated as follows: maximum exposure in the rat (male) was in the 14-day IV study and at the 300 mg/kg dose, the AUClast is 1070 μg*hr/mL; maximum exposure in dogs occurred at the 300 mg/kg dose in the 9-month oral toxicity study and the AUClast is 1310*μg·hr/mL.

[5] = 14-day IV study in rat (toxicology exposure); format: in vivo
Description: as §1

In the case of COc1cccc(OC)c1-n1c(NS(=O)(=O)[C@@H](C)[C@H](C)c2ncc(C)cn2)nnc1-c1cncc(C)c1 [BGE-105, (2S,3R)—N-(4-(2,6-dimethoxyphenyl)-5-(5-methyl-3-pyridinyl)-4H-1,2,4-triazol-3-yl)-3-(5-methyl-2-pyrimidinyl)-2-butanesulfonamide], the serious adverse events (healthy adult subjects) is reported as “no serious adverse events”, the tolerability (healthy adult subjects; all doses including 240 mg/1440 mg) is reported as “well tolerated” and the “decrease of wet weight of tibialis anterior (TA) muscle in casted limb” value [1] is reported as 3%. For the same compound, the Emax (human APLNR) was 114%, the “distance run more than vehicle-treated mice at end of experimental period” value [2] was “at least 1 km/day” and the “number of muscle proteins (out of 18) statistically highly expressed in fast skeletal muscle” value ([3]; treated compared to placebo) was 15. The “differentially expressed genes associated with treatment, fast skeletal muscle” value ([3]; vastus lateralis biopsies) was 3418, the “differentially expressed genes associated with treatment, slow skeletal muscle (Type 1)” value ([3]; vastus lateralis biopsies) was 1571 and the “predicted human exposure margin Human:Dog” value ([4]; 240 mg loading dose + 1440 mg IV for 22 hours, 1036/1310) was 0.79. The NOAEL ([4]; dog) was “maximum dose tested”, the AUC(0-t) ([4]; dog, in vivo, dogs, 9-month oral toxicity study, 300 mg/kg, read-out: AUClast, maximum exposure) was 1310 µg·h/mL and the “predicted human exposure margin Human:Rat” value ([5]; 240 mg loading dose + 1440 mg IV for 22 hours, 1036/1070) was 0.97. For the same compound, the AUC(0-t) ([5]; in vivo, rat (male), 14-day IV study, 300 mg/kg, read-out: AUClast, maximum exposure) was 1070 µg·h/mL and the NOAEL ([5]; rat) was “maximum dose tested”.
